Experimental data: PubChem BioAssay AID2060902 (Molecular Pharmacology Branch, DTP, NCI, 2025)

Test system: 485368-065-R3-J5-PDC spheroids with HUVEC/MSC, viability
Assay: Anticancer human tumor 485368-065-R3-J5-PDC patient-derived pancreatic carcinoma cell line growth inhibition [RAS]
Details: for IC50: curve of first compound; for viability, T/C: stronger effect = lower value; active = viability on the fitted dose curve at most 10% of control; inactive = the rest
Procedure, shortened: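 Agents were tested in combination matrices in half-log decrements from a top concentration at or near clinical Cmax (10 microM if undetermined). Targets were multi-cell spheroids of tumour lines plus HUVEC and MSC stromal cells.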

[1] = second compound 0.00316 µM, first compound 0.00316 µM
[2] = second compound 0.00316 µM, first compound 0.01 µM
[3] = second compound 0.00316 µM, first compound 0.0316 µM
[4] = second compound 0.00316 µM, first compound 0.1 µM
[5] = second compound 0.00316 µM, first compound 0.316 µM
[6] = second compound 0.00316 µM, first compound 1 µM
[7] = second compound 0.01 µM, first compound 0.00316 µM
[8] = second compound 0.01 µM, first compound 0.01 µM
[9] = second compound 0.01 µM, first compound 0.0316 µM
[10] = second compound 0.01 µM, first compound 0.1 µM
[11] = second compound 0.01 µM, first compound 0.316 µM
[12] = second compound 0.01 µM, first compound 1 µM
[13] = second compound 0.0316 µM, first compound 0.00316 µM
[14] = second compound 0.0316 µM, first compound 0.01 µM
[15] = second compound 0.0316 µM, first compound 0.0316 µM
[16] = second compound 0.0316 µM, first compound 0.1 µM
[17] = second compound 0.0316 µM, first compound 0.316 µM
[18] = second compound 0.0316 µM, first compound 1 µM
[19] = second compound 0.1 µM, first compound 0.00316 µM
[20] = second compound 0.1 µM, first compound 0.01 µM
[21] = second compound 0.1 µM, first compound 0.0316 µM
[22] = second compound 0.1 µM, first compound 0.1 µM
[23] = second compound 0.1 µM, first compound 0.316 µM
[24] = second compound 0.1 µM, first compound 1 µM
[25] = second compound 0.316 µM, first compound 0.00316 µM
[26] = second compound 0.316 µM, first compound 0.01 µM
[27] = second compound 0.316 µM, first compound 0.0316 µM
[28] = second compound 0.316 µM, first compound 0.1 µM
[29] = second compound 0.316 µM, first compound 0.316 µM
[30] = second compound 0.316 µM, first compound 1 µM
[31] = second compound 1 µM, first compound 0.00316 µM
[32] = second compound 1 µM, first compound 0.01 µM
[33] = second compound 1 µM, first compound 0.0316 µM
[34] = second compound 1 µM, first compound 0.1 µM
[35] = second compound 1 µM, first compound 0.316 µM
[36] = second compound 1 µM, first compound 1 µM
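Note: spheroids exposed to agents for seven days before readout.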

CC1(C)CCC(Nc2ncc(C(F)(F)F)c(-c3c[nH]c4c(P(C)(C)=O)c(C#N)ccc34)n2)CN1 (stereo not drawn) + C#Cc1c(F)ccc2cc(O)cc(-c3ncc4c(N5CC6CCC(C5)N6)nc(OCC56CCCN5CC(F)C6)nc4c3F)c12
4.77 nM: IC50 (second compound 1 µM)
4.85 nM: IC50 (second compound 3.16 µM)
3.18 nM: IC50 (second compound 0.0316 µM)
< 0.949 nM: IC50 (second compound 10 µM)
inactive: viability, T/C (second compound 0.0316 µM, first compound 0.000949 µM) 89.8% | viability, T/C (second compound 0.0316 µM, first compound 0.003 µM) 51.1% | viability, T/C (second compound 0.0316 µM, first compound 0.00949 µM) 33.6% | viability, T/C (second compound 0.0316 µM, first compound 0.03 µM) 31% | viability, T/C (second compound 0.0316 µM, first compound 0.0949 µM) 27.3% | viability, T/C (second compound 0.0316 µM, first compound 0.3 µM) 30.2% | viability, T/C (second compound 0.1 µM, first compound 0.000949 µM) 92.7% | viability, T/C (second compound 0.1 µM, first compound 0.003 µM) 53.2% | viability, T/C (second compound 0.1 µM, first compound 0.00949 µM) 38.5% | viability, T/C (second compound 0.1 µM, first compound 0.03 µM) 29.4% | viability, T/C (second compound 0.1 µM, first compound 0.0949 µM) 27.7% | viability, T/C (second compound 0.1 µM, first compound 0.3 µM) 33.6% | viability, T/C (second compound 0.316 µM, first compound 0.000949 µM) 91.5% | viability, T/C (second compound 0.316 µM, first compound 0.003 µM) 56.4% | viability, T/C (second compound 0.316 µM, first compound 0.00949 µM) 36.4% | viability, T/C (second compound 0.316 µM, first compound 0.03 µM) 33.6% | viability, T/C (second compound 0.316 µM, first compound 0.0949 µM) 30.1% | viability, T/C (second compound 0.316 µM, first compound 0.3 µM) 28.8% | viability, T/C (second compound 1 µM, first compound 0.000949 µM) 85.2% | viability, T/C (second compound 1 µM, first compound 0.003 µM) 55.8% | viability, T/C (second compound 1 µM, first compound 0.00949 µM) 40.7% | viability, T/C (second compound 1 µM, first compound 0.03 µM) 36% | viability, T/C (second compound 1 µM, first compound 0.0949 µM) 30.8% | viability, T/C (second compound 1 µM, first compound 0.3 µM) 31.1% | viability, T/C (second compound 3.16 µM, first compound 0.000949 µM) 72.3% | viability, T/C (second compound 3.16 µM, first compound 0.003 µM) 56.3% | viability, T/C (second compound 3.16 µM, first compound 0.00949 µM) 41.2% | viability, T/C (second compound 3.16 µM, first compound 0.03 µM) 36.5% | viability, T/C (second compound 3.16 µM, first compound 0.0949 µM) 36.9% | viability, T/C (second compound 3.16 µM, first compound 0.3 µM) 35.6% | viability, T/C (second compound 10 µM, first compound 0.000949 µM) 41.6% | viability, T/C (second compound 10 µM, first compound 0.003 µM) 38.1% | viability, T/C (second compound 10 µM, first compound 0.00949 µM) 31.4% | viability, T/C (second compound 10 µM, first compound 0.03 µM) 35.4% | viability, T/C (second compound 10 µM, first compound 0.0949 µM) 30.4% | viability, T/C (second compound 10 µM, first compound 0.3 µM) 27.8%
4.39 nM: IC50 (second compound 0.316 µM)
3.83 nM: IC50 (second compound 0.1 µM)

C=CC(=O)Nc1cc(Nc2nccc(-c3cn(C)c4ccccc34)n2)c(OC)cc1N(C)CCN(C)C + C=CC(=O)N1CCN(c2nc(OCC3CCCN3C)nc3c(F)c(-c4nc(N)cc(C)c4C(F)(F)F)c(Cl)cc23)C(C)C1
inactive: viability, T/C [1] 103% | viability, T/C [2] 89.9% | viability, T/C [3] 104% | viability, T/C [4] 104% | viability, T/C [5] 108% | viability, T/C [6] 97.1% | viability, T/C [7] 105% | viability, T/C [8] 96.9% | viability, T/C [9] 94.8% | viability, T/C [10] 100% | viability, T/C [11] 115% | viability, T/C [12] 89.5% | viability, T/C [13] 100% | viability, T/C [14] 98.9% | viability, T/C [15] 99.4% | viability, T/C [16] 109% | viability, T/C [17] 108% | viability, T/C [18] 94.1% | viability, T/C [19] 99.8% | viability, T/C [20] 98.6% | viability, T/C [21] 99.7% | viability, T/C [22] 103% | viability, T/C [23] 100% | viability, T/C [24] 85% | viability, T/C [25] 98% | viability, T/C [26] 93.1% | viability, T/C [27] 111% | viability, T/C [28] 119% | viability, T/C [29] 117% | viability, T/C [30] 87.8% | viability, T/C [31] 106% | viability, T/C [32] 96.8% | viability, T/C [33] 110% | viability, T/C [34] 112% | viability, T/C [35] 106% | viability, T/C [36] 87.8%
> 1000 nM: IC50 (second compound 0.00316 µM) | IC50 (second compound 0.01 µM) | IC50 (second compound 0.0316 µM) | IC50 (second compound 0.1 µM) | IC50 (second compound 0.316 µM) | IC50 (second compound 1 µM)

CC(Nc1ccc2c(c1)OCCn1cc(N3C(=O)OCC3C(F)F)nc1-2)C(N)=O (stereo not drawn) + C=CC(=O)N1CCN(c2nc(OCC3CCCN3C)nc3c(F)c(-c4nc(N)cc(C)c4C(F)(F)F)c(Cl)cc23)C(C)C1
> 10000 nM: IC50 (second compound 0.00316 µM) | IC50 (second compound 0.01 µM) | IC50 (second compound 0.0316 µM) | IC50 (second compound 0.316 µM)
9800 nM: IC50 (second compound 0.1 µM)
4990 nM: IC50 (second compound 1 µM)
inactive: viability, T/C [3] 103% | viability, T/C [4] 79.8% | viability, T/C [5] 88.5% | viability, T/C [6] 75.4% | viability, T/C (second compound 0.00316 µM, first compound 3.16 µM) 75.6% | viability, T/C (second compound 0.00316 µM, first compound 10 µM) 51.3% | viability, T/C [9] 92.4% | viability, T/C [10] 86.9% | viability, T/C [11] 91.8% | viability, T/C [12] 72.8% | viability, T/C (second compound 0.01 µM, first compound 3.16 µM) 76.5% | viability, T/C (second compound 0.01 µM, first compound 10 µM) 49.5% | viability, T/C [15] 87.1% | viability, T/C [16] 72.3% | viability, T/C [17] 88% | viability, T/C [18] 85.7% | viability, T/C (second compound 0.0316 µM, first compound 3.16 µM) 76.4% | viability, T/C (second compound 0.0316 µM, first compound 10 µM) 52.1% | viability, T/C [21] 100% | viability, T/C [22] 97.6% | viability, T/C [23] 102% | viability, T/C [24] 82% | viability, T/C (second compound 0.1 µM, first compound 3.16 µM) 73.8% | viability, T/C (second compound 0.1 µM, first compound 10 µM) 49.3% | viability, T/C [27] 98.5% | viability, T/C [28] 87.1% | viability, T/C [29] 78.4% | viability, T/C [30] 70.5% | viability, T/C (second compound 0.316 µM, first compound 3.16 µM) 82.8% | viability, T/C (second compound 0.316 µM, first compound 10 µM) 57.1% | viability, T/C [33] 101% | viability, T/C [34] 90.5% | viability, T/C [35] 87.5% | viability, T/C [36] 84.7% | viability, T/C (second compound 1 µM, first compound 3.16 µM) 55% | viability, T/C (second compound 1 µM, first compound 10 µM) 41.3%

O=C(c1ccc(F)c(F)c1Nc1ccc(I)cc1F)N1CC(O)([C@@H]2CCCCN2)C1 + C=CC(=O)N1CCN(c2nc(OCC3CCCN3C)nc3c(F)c(-c4nc(N)cc(C)c4C(F)(F)F)c(Cl)cc23)C(C)C1
29.1 nM: IC50 (second compound 0.1 µM)
27.8 nM: IC50 (second compound 0.01 µM)
34.4 nM: IC50 (second compound 0.316 µM)
28.6 nM: IC50 (second compound 0.00316 µM)
49.6 nM: IC50 (second compound 1 µM)
active: viability, T/C [18] 7.64%
31.1 nM: IC50 (second compound 0.0316 µM)
inactive: viability, T/C [1] 106% | viability, T/C [2] 60.2% | viability, T/C [3] 56.9% | viability, T/C [4] 30.1% | viability, T/C [5] 24.3% | viability, T/C [6] 8.78% | viability, T/C [7] 99.8% | viability, T/C [8] 71.6% | viability, T/C [9] 44.8% | viability, T/C [10] 29.5% | viability, T/C [11] 26.1% | viability, T/C [12] 8.23% | viability, T/C [13] 90.9% | viability, T/C [14] 73.1% | viability, T/C [15] 47.8% | viability, T/C [16] 29.8% | viability, T/C [17] 23.1% | viability, T/C [19] 86% | viability, T/C [20] 72.3% | viability, T/C [21] 44.6% | viability, T/C [22] 30.4% | viability, T/C [23] 25.3% | viability, T/C [24] 8.95% | viability, T/C [25] 85.8% | viability, T/C [26] 68.6% | viability, T/C [27] 50.5% | viability, T/C [28] 33.1% | viability, T/C [29] 26.8% | viability, T/C [30] 8.9% | viability, T/C [31] 91.6% | viability, T/C [32] 65.5% | viability, T/C [33] 52.7% | viability, T/C [34] 47.3% | viability, T/C [35] 27.6% | viability, T/C [36] 11.4%
